Measurements from patent US20080021069A1, “Receptor Function Regulating Agent” (TAKEDA PHARMACEUTICAL COMPANY LIMITED, priority 2004, published 2008).

How the values were obtained:
[1] = target: T1, human GPR40 (Homo sapiens, UniProt O14842); test: GPR40 antagonist activity with changes in intracellular calcium concentration as index (NFAT-luciferase reporter, CHO(dhfr-)/GPR40-NFAT-Luc cells); type: cell-based; conditions: CHO cell line expressing human GPR40, NFAT-Luc reporter; GPR40 agonist 3-(4-((6-benzyloxy-2',6'-dimethyl-biphenyl-3-yl)methoxy)phenyl)propanoic acid 40 nM; 4 hr culture; 0.1% fatty acid-free BSA
T1 construct: expressed in transfected cells; host or cells: CHO(dhfr-) cells: line CHO-hGPR40 No. 104 of WO2004/041266, with a stably expressed NFAT-TA-Luc reporter (CHO(dhfr-)/GPR40-NFAT-Luc)
T1 sequence (O14842 whole entry): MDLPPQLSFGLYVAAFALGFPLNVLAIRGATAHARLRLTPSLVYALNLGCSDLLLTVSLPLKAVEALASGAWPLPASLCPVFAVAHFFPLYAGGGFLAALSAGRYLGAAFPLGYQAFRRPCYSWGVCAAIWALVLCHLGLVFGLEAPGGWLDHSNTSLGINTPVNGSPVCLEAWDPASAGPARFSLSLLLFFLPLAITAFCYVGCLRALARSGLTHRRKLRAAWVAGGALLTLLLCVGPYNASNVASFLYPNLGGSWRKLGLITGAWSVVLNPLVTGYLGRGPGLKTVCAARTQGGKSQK
Text: Evaluation of GPR40 antagonist activity with changes in intracellular calcium concentration as index
An assay system of GPR40 antagonist was established as follows. In this assay system, as the GPR40 agonist, 3-(4-((6-benzyloxy-2′,6′-dimethyl-biphenyl-3-yl)methoxy)phenyl)propanoic acid (compound described in Example 340 of WO2004/041266) was used.
First, NFAT-TA was cut out from pNFAT-TA-Luc (manufactured by BD Bioscience Clontech) with HindIII and NheI, the recovered fragment was inserted into pGL3 basic neo digested with HindIII and NheI to give plasmid:pGL3 basic neo NFAT-TA-Luc.
This plasmid was used for “the CHO cell line (CHO-hGPR40 No. 104), which was made to express human GPR40” described in WO2004/041266, and a cell line CHO(dhfr-)/GPR40-NFAT-Luc, wherein a reporter gene was stably expressed by a method known per se, was prepared.
This cell line was diluted with a medium (nucleic acid-free MEM (Minimum Essential Medium)—α medium added with dialyzed FBS (Fetal Bovine Serum) to a final concentration of 10%) in such a manner that 2×10^4 cells/100 μl would be contained, dispensed to a white walled 96 well plate (manufactured by Coster) by 100 μl per well, and cultured overnight in a CO2 incubator. Then the medium was removed by suction from the 96 well plate, and a 10 mM test compound-dimethyl sulfoxide (manufactured by Wako Pure Chemical Industries, Ltd.) solution diluted with a medium (nucleic acid-free MEM—α medium added with bovine serum albumin (BSA) free of fatty acid to a final concentration of 0.1%) to each concentration was added by 50 μl per well. Further, 3-(4-((6-benzyloxy-2′,6′-dimethyl-biphenyl-3-yl)methoxy)phenyl)propanoic acid diluted with a medium (nucleic acid-free MEM-α (medium added with BSA free of fatty acid to a final concentration of 0.1%) to a final concentration of 40 nM was added to the 96 well plate by 50 μl per well.
After culture in a CO2 incubator for 4 hr, the culture medium was removed from the 96 well plate. Then, PicaGene (manufactured by TOYO INK MFG. CO., LTD.) was added to the 96 well plate, and the luciferase activity was determined using PerkinElmer ARVO (trade name, manufactured by PerkinElmer), based on which changes in the intracellular calcium concentration were evaluated. After assay of luciferase activity, nonlinear regression analysis was performed using PRISM 3 (trade name, manufactured by GraphPad) and IC50 value was calculated with changes in the intracellular calcium concentration as an index.
In the same manner as in Experimental Example 1, the IC50 value of the compound of the present invention was calculated.

| Structure (SMILES) | IC50 [1] | melting point |
| --- | --- | --- |
| COCOc1ccc(-n2c(SCc3ccc(Cl)cc3)nc3ccc(Cl)cc32)cc1 [Example 7, 6-Chloro-2-[(4-chlorobenzyl)thio]-1-[4-(methoxymethoxy)phenyl]-1H-benzimidazole] | < 100 nM | 109 to 110 °C |
| COCOc1ccc(-n2c(SCc3ccc(Br)cc3)nc3ccc(Cl)cc32)cc1 [Example 8, 2-[(4-Bromobenzyl)thio]-6-chloro-1-[4-(methoxymethoxy)phenyl]-1H-benzimidazole] | < 100 nM | 123 to 124 °C |
| CCCOc1ccc(-n2c(NCc3ccc(C(C)(C)C)cc3)nc3ccc(Cl)cc32)cc1 [Example 73, N-(4-tert-Butylbenzyl)-6-chloro-1-(4-propoxyphenyl)-1H-benzimidazol-2-amine] | < 100 nM | 98 to 100 °C |
| CCCCOc1ccc(-n2c(NCc3ccc(Cl)cc3)nc3ccc(Cl)cc32)cc1 [Example 76, 1-(4-Butoxyphenyl)-6-chloro-N-(4-chlorobenzyl)-1H-benzimidazol-2-amine] | < 100 nM | 122 to 123 °C |
| CC(C)(C)c1ccc(CNc2nc3ccc(Cl)cc3n2-c2ccc(OCC(F)(F)F)cc2)cc1 [Example 78, N-(4-tert-Butylbenzyl)-6-chloro-1-[4-(2,2,2-trifluoroethoxy)phenyl]-1H-benzimidazol-2-amine] | < 100 nM | 151 to 152 °C |
| CC(C)(C)c1ccc(CNc2nc3ccc(Cl)cc3n2-c2ccc(OC(F)(F)F)cc2)cc1 [Example 80, N-(4-tert-Butylbenzyl)-6-chloro-1-[4-(trifluoromethoxy)phenyl]-1H-benzimidazol-2-amine] | < 100 nM | 181 to 182 °C |
| CCOc1ccc(-n2c(NCc3ccc(Cl)cc3)nc3cc(Cl)ccc32)cc1 [Example 82, 5-Chloro-N-(4-chlorobenzyl)-1-(4-ethoxyphenyl)-1H-benzimidazol-2-amine] | < 100 nM | 109 to 110 °C |
| CCCCOc1ccc(-n2c(NCc3ccc(C(C)(C)C)cc3)nc3cc(Cl)ccc32)cc1 [Example 86, 1-(4-Butoxyphenyl)-N-(4-tert-butylbenzyl)-5-chloro-1H-benzimidazol-2-amine] | < 100 nM | 158 to 159 °C |
| CCOc1ccc(-n2c(NCc3ccc(C(C)(C)C)cc3)nc3cc(Cl)c(Cl)cc32)cc1 [Example 93, N-(4-tert-Butylbenzyl)-5,6-dichloro-1-(4-ethoxyphenyl)-1H-benzimidazol-2-amine] | < 100 nM | 186 to 187 °C |
| CCOc1ccc(-n2c(NCc3ccc(Br)cc3)nc3cc(Cl)c(Cl)cc32)cc1 [Example 95, N-(4-Bromobenzyl)-5,6-dichloro-1-(4-ethoxyphenyl)-1H-benzimidazol-2-amine] | < 100 nM | 92 to 93 °C |
| CCCOc1ccc(-n2c(NCc3ccc(Br)cc3)nc3cc(Cl)c(Cl)cc32)cc1 [Example 97, N-(4-Bromobenzyl)-5,6-dichloro-1-(4-propoxyphenyl)-1H-benzimidazol-2-amine] | < 100 nM | 106 to 107 °C |
| CCCOc1ccc(-n2c(NCc3ccc(Cl)cc3)nc3cc(Cl)c(Cl)cc32)cc1 [Example 98, 5,6-Dichloro-N-(4-chlorobenzyl)-1-(4-propoxyphenyl)-1H-benzimidazol-2-amine] | < 100 nM | 166 to 167 °C |
| CCCCOc1ccc(-n2c(NCc3ccc(C(C)(C)C)cc3)nc3cc(Cl)c(Cl)cc32)cc1 [Example 99, 1-(4-butoxyphenyl)-N-(4-tert-butylbenzyl)-5,6-dichloro-1H-benzimidazol-2-amine] | < 100 nM | – |
| CCCCOc1ccc(-n2c(NCc3ccc(Br)cc3)nc3cc(Cl)c(Cl)cc32)cc1 [Example 100, 1-(4-Butoxyphenyl)-5,6-dichloro-N-(4-bromobenzyl)-1H-benzimidazol-2-amine] | < 100 nM | 161 to 162 °C |
| CCCCOc1ccc(-n2c(NCc3ccc(Cl)cc3)nc3cc(Cl)c(Cl)cc32)cc1 [Example 101, 1-(4-Butoxyphenyl)-5,6-dichloro-N-(4-chlorobenzyl)-1H-benzimidazol-2-amine] | < 100 nM | 162 to 163 °C |

Other lines, results leading:

| IC50 [1] | melting point | Structure (SMILES) |
| --- | --- | --- |
| < 100 nM | 102 to 103 °C | CCCOc1ccc(-n2c(SCc3ccc(Cl)cc3)nc3ccc(Cl)cc32)cc1 [Example 12, 6-Chloro-2-[(4-chlorobenzyl)thio]-1-(4-propoxyphenyl)-1H-benzimidazole] |
| < 100 nM | 103 to 104 °C | CCOc1ccc(-n2c(SCc3ccc(C(F)(F)F)cc3)nc3ccc(Cl)cc32)cc1 [Example 33, 6-Chloro-1-(4-ethoxyphenyl)-2-{[4-(trifluoromethyl)benzyl]thio}-1H-benzimidazole] |
| < 100 nM | 104 to 105 °C | CCOc1ccc(-n2c(SCc3ccc(C(F)(F)F)nc3)nc3ccc(Cl)cc32)cc1 [Example 36, 6-chloro-1-(4-ethoxyphenyl)-2-({[6-(trifluoromethyl)pyridin-3-yl]methyl}thio)-1H-benzimidazole] |
| < 100 nM | 142 to 143 °C | CCOc1ccc(-n2c(SCc3ccc(C(C)(C)C)cc3)nc3ccc(Cl)cc32)cc1 [Example 38, 2-[(4-tert-butylbenzyl)thio]-6-chloro-1-(4-ethoxyphenyl)-1H-benzimidazole] |
| < 100 nM | 135 to 136 °C | CCOc1ccc(-n2c(NCc3ccc(Cl)cc3)nc3ccc(Cl)cc32)cc1 [Example 47, 6-Chloro-N-(4-chlorobenzyl)-1-(4-ethoxyphenyl)-1H-benzimidazol-2-amine] |
| < 100 nM | 208 to 209 °C | COc1ccc(-n2c(NCc3ccc(C(C)(C)C)cc3)nc3ccc(Cl)cc32)cc1 [Example 72, N-(4-tert-Butylbenzyl)-6-chloro-1-(4-methoxyphenyl)-1H-benzimidazol-2-amine] |
| < 100 nM | 130 to 131 °C | CCCOc1ccc(-n2c(NCc3ccc(Cl)cc3)nc3ccc(Cl)cc32)cc1 [Example 74, 6-Chloro-N-(4-chlorobenzyl)-1-(4-propoxyphenyl)-1H-benzimidazol-2-amine] |
| < 100 nM | 211 to 212 °C | CCOc1ccc(-n2c(NCc3ccc(C(C)(C)C)cc3)nc3cc(Cl)ccc32)cc1 [Example 81, N-(4-tert-Butylbenzyl)-5-chloro-1-(4-ethoxyphenyl)-1H-benzimidazol-2-amine] |
| < 100 nM | 190 to 191 °C | CCCOc1ccc(-n2c(NCc3ccc(C(C)(C)C)cc3)nc3cc(Cl)ccc32)cc1 [Example 83, N-(4-tert-Butylbenzyl)-5-chloro-1-(4-propoxyphenyl)-1H-benzimidazol-2-amine] |
| < 100 nM | 190 to 191 °C | CC(C)(C)c1ccc(CNc2nc3cc(Cl)ccc3n2-c2ccc(OCC(F)(F)F)cc2)cc1 [Example 89, N-(4-tert-Butylbenzyl)-5-chloro-1-[4-(2,2,2-trifluoroethoxy)phenyl]-1H-benzimidazol-2-amine] |
| < 100 nM | – | COc1ccc(-n2c(NCc3ccc(C(C)(C)C)cc3)nc3cc(Cl)c(Cl)cc32)cc1 [Example 92, N-(4-tert-Butylbenzyl)-5,6-dichloro-1-(4-methoxyphenyl)-1H-benzimidazol-2-amine] |
| < 100 nM | 141 to 142 °C | CCOc1ccc(-n2c(NCc3ccc(Cl)cc3)nc3cc(Cl)c(Cl)cc32)cc1 [Example 94, 5,6-Dichloro-N-(4-chlorobenzyl)-1-(4-ethoxyphenyl)-1H-benzimidazol-2-amine] |
| < 100 nM | 122 to 123 °C | CCCOc1ccc(-n2c(NCc3ccc(C(C)(C)C)cc3)nc3cc(Cl)c(Cl)cc32)cc1 [Example 96, N-(4-tert-Butylbenzyl)-5,6-dichloro-1-(4-propoxyphenyl)-1H-benzimidazol-2-amine] |
| < 100 nM | 136 to 137 °C | CC(C)(C)c1ccc(CNc2nc3cc(Cl)c(Cl)cc3n2-c2ccc(OCC(F)(F)F)cc2)cc1 [Example 102, N-(4-tert-Butylbenzyl)-5,6-dichloro-1-[4-(2,2,2-trifluoroethoxy)phenyl]-1H-benzimidazol-2-amine] |
